Reference: ChEMBL document CHEMBL1127481, “Adenosine deaminase inhibitors. Synthesis and biological evaluation of 4-amino-1-(2(S)-hydroxy-3(R)-nonyl)-1H-imidazo[4,5-c]pyridine (3-deaza-(+)-EHNA) and certain C1' derivatives” (J Med Chem, 1994)

The molecules below were run against T1, Adenosine deaminase (Bos taurus, UniProt P56658) (assay: Compound was tested for the inhibition of adenosine deaminase from calf intestinal mucosa).
T1 sequence (P56658 whole entry): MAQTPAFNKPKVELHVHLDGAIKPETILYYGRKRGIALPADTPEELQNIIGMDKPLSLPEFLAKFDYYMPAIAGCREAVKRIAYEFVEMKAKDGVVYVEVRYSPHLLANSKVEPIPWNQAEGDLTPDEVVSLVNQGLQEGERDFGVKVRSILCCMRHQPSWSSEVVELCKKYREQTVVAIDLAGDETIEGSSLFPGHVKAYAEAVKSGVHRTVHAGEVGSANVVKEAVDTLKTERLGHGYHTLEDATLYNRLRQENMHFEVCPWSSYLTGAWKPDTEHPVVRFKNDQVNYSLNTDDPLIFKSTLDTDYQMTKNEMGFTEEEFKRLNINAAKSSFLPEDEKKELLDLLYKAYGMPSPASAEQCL

| Structure (SMILES) | Ki |
| --- | --- |
| CCCCCC[C@H]([C@H](C)O)n1cnc2c(N)nccc21 | 6.2 nM |
| CCCCCC[C@H]([C@@H](O)CF)n1cnc2c(N)nccc21 | 4.7 nM |
| CCCCCC[C@H]([C@@H](O)CO)n1cnc2c(N)nccc21 | 497 nM |
